{
  "source": "paper PMC2929362",
  "about": "(Bioorganic & medicinal chemistry, 2009)",
  "key": {"human SIRT2": {"target": "T1, human SIRT2 (Homo sapiens, UniProt Q8IXJ6)", "T1 sequence (Q8IXJ6 1-352 isoform Q8IXJ6-2)": "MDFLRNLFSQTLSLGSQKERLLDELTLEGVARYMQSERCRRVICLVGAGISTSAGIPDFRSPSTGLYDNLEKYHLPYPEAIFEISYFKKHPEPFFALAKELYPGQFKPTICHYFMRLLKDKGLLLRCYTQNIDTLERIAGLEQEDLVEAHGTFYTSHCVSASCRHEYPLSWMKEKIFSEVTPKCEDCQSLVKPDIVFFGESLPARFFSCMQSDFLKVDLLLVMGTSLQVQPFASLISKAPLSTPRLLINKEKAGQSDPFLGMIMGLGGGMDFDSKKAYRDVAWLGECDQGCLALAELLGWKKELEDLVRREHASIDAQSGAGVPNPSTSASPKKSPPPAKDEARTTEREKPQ", "assay": "Inhibition of a panel of human sirtuin homologues: SIRT2", "assay_type": "biochemical"}, "human SIRT3": {"target": "T2, human SIRT3 (Homo sapiens, UniProt Q9NTG7)", "T2 sequence (Q9NTG7 1-399)": "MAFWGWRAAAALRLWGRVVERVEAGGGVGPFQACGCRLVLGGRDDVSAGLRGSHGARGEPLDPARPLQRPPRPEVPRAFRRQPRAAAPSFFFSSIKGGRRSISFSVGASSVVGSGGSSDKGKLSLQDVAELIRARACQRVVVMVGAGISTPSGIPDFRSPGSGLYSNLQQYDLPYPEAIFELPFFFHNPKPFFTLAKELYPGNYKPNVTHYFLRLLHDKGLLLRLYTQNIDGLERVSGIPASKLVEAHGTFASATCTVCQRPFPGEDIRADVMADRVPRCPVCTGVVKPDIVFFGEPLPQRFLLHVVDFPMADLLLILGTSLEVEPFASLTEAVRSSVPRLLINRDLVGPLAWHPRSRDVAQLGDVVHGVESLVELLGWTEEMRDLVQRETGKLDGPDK", "assay": "Inhibition of a panel of human sirtuin homologues: SIRT3", "assay_type": "biochemical"}, "Hst2 [1]": {"target": "T3, Hst2 (Saccharomyces cerevisiae, UniProt P53686)", "T3 sequence (P53686 1-294)": "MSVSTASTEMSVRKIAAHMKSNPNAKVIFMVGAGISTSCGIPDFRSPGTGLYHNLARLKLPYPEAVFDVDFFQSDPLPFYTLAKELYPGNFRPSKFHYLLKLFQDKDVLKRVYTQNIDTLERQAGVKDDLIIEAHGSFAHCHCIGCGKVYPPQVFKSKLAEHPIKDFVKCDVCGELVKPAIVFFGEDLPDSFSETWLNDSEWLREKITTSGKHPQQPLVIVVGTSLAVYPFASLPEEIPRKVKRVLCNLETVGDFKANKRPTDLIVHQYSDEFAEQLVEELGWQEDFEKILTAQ", "assay": "Reversibility assay", "assay_type": "biochemical", "details": "Hst2 incubated with 10× IC50 of inhibitor, then 100-fold dilution"}, "Hst2 [2]": {"target": "T3, Hst2", "assay": "biochemical", "assay_type": "biochemical", "details": "for activity at 50 µM: read-out: % Activity at 50 μM; for activity at 500 µM: read-out: % Activity at 500 μM; for inhibition of Hst2 deacetylation by scaffold analogs (in words): SAR discussion"}, "Hst2 [3]": {"target": "T3, Hst2", "assay": "Competition assay", "assay_type": "biochemical", "details": "for α: mixed inhibition model"}, "[4]": {"target": "T4, full length human SIRT1 (FL SIRT1) (Homo sapiens, UniProt Q96EB6)", "T4 sequence (Q96EB6 1-747)": "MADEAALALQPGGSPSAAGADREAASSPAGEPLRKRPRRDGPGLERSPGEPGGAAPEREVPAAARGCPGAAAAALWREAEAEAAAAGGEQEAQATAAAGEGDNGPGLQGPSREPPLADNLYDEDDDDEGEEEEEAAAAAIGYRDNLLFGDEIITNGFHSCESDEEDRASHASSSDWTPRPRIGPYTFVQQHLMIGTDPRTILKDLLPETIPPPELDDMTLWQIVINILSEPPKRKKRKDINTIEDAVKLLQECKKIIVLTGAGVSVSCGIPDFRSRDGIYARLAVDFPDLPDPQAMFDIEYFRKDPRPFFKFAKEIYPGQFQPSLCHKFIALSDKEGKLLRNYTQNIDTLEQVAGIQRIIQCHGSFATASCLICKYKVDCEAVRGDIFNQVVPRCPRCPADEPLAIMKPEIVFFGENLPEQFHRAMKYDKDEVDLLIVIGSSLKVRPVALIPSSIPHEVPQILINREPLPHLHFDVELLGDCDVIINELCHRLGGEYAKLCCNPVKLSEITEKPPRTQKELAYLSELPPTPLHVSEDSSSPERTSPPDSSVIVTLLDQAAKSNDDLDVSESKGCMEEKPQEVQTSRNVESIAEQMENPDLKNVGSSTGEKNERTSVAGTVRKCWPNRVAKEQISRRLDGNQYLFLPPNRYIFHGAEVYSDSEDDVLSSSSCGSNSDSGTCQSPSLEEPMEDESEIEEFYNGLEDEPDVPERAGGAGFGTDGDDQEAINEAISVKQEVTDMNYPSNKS", "assay": "Fluorigenic"}, "Hst2 [5]": {"target": "T3, Hst2", "assay": "biochemical", "details": "for IC50 (Table 5, scaffold 12 analogs, Hst2): Hst2 fluorigenic assay"}},
  "note": "“Also recorded” adds a separate entry of the source.",
  "data": [
    {"smiles": "CCc1ccc(OCCCC(=O)Oc2ccc3c(c2)oc(=O)c2ccccc23)cc1", "note": "[Compound 11, 4-(4-Ethyl-phenoxy)-butyric acid 6-oxo-6H-benzo[c]chromen-3-yl ester]", "values": [
      {"measurement": "inhibition of human SIRT2 (in words)", "setting": "human SIRT2", "result": "potent inhibitor of SIRT2"},
      {"measurement": "inhibition of human SIRT3 (in words)", "setting": "human SIRT3", "result": "but not SIRT3"},
      {"measurement": "slope of progress curve, % of enzyme plus DMSO control", "setting": "Hst2 [1]", "result": 82, "unit": "%"},
      {"measurement": "activity at 50 µM", "setting": "Hst2 [2]", "result": "< 1", "unit": "%"},
      {"measurement": "activity at 500 µM", "setting": "Hst2 [2]", "result": "< 1", "unit": "%"},
      {"measurement": "Inhibition Mechanism", "setting": "Hst2 [3]; substrate NAD+", "result": "fully non-competitive inhibition model; also recorded: NC (full)"},
      {"measurement": "Inhibition Mechanism", "setting": "Hst2 [3]; substrate acetyl-lysine", "result": "partial non-competitive inhibition model; also recorded: NC (partial)"}
    ]},
    {"smiles": "O=C(O)CCN1Cc2ccccc2C1=O", "note": "[Compound 12, 3-(1-Oxo-1,3-dihydro-isoindol-2-yl)-propionic acid]", "values": [
      {"measurement": "inhibition of human SIRT2 (in words)", "setting": "human SIRT2", "result": "only weak inhibitory activity"},
      {"measurement": "inhibition of human SIRT3 (in words)", "setting": "human SIRT3", "result": "only weak inhibitory activity"},
      {"measurement": "slope of progress curve, % of enzyme plus DMSO control", "setting": "Hst2 [1]", "result": 96, "unit": "%"},
      {"measurement": "Inhibition Mechanism", "setting": "Hst2 [3]; substrate NAD+", "result": "fully non-competitive inhibition model; also recorded: NC (full)"},
      {"measurement": "Inhibition Mechanism", "setting": "Hst2 [3]; substrate acetyl-lysine", "result": "fully non-competitive inhibition model; also recorded: NC (full)"}
    ]},
    {"smiles": "Oc1c(Cl)cc(Cl)c(Cl)c1Cc1c(O)c(Cl)cc(Cl)c1Cl", "note": "[Compound 13, hexachlorophene]", "values": [
      {"measurement": "IC50", "setting": "[4]", "result": "34 ± 10", "unit": "µM"},
      {"measurement": "IC50", "setting": "Hst2 [5]", "result": "12.5 ± 0.6", "unit": "µM"},
      {"measurement": "Ki", "setting": "Hst2 [3]; with respect to NAD+ (varied 5-80 μM), acetyl-lysine substrate 100 μM", "result": "3.9 ± 0.7", "unit": "µM"},
      {"measurement": "Ki", "setting": "Hst2 [3]; with respect to acetyl-lysine substrate (varied 3-50 μM), NAD+ 160 μM", "result": "2.5 ± 1", "unit": "µM"},
      {"measurement": "Inhibition Mechanism", "setting": "Hst2 [3]; substrate NAD+", "result": "fully non-competitive inhibition model; also recorded: NC (full)"},
      {"measurement": "Inhibition Mechanism", "setting": "Hst2 [3]; substrate acetyl-lysine", "result": "fully mixed inhibition model; also recorded: Mixed (full)"},
      {"measurement": "α", "setting": "Hst2 [3]; substrate acetyl-lysine", "result": 13.4}
    ]},
    {"smiles": "COCC#CC1c2cc(O)c(OC)cc2CCN1C", "note": "(centres unmarked) [Compound 14a, 6-Methoxy-1-(3-methoxy-prop-1-ynyl)-2-methyl-1,2,3,4-tetrahydro-isoquinolin-7-ol]", "values": [
      {"measurement": "inhibition of human SIRT2 (in words)", "setting": "human SIRT2", "result": "only weak inhibitory activity"},
      {"measurement": "inhibition of human SIRT3 (in words)", "setting": "human SIRT3", "result": "only weak inhibitory activity"},
      {"measurement": "Inhibition Mechanism", "setting": "Hst2 [3]; substrate NAD+", "result": "fully mixed inhibition model; also recorded: Mixed (full)"},
      {"measurement": "α", "setting": "Hst2 [3]; substrate NAD+", "result": 2.6},
      {"measurement": "Inhibition Mechanism", "setting": "Hst2 [3]; substrate acetyl-lysine", "result": "fully non-competitive inhibition model; also recorded: NC (full)"}
    ]},
    {"smiles": "COCC#CC1c2cc(O)c(OC)cc2CCN1Cc1ccc(OC)cc1", "note": "(centres unmarked) [Compound 14b]", "values": [
      {"measurement": "activity at 50 µM", "setting": "Hst2 [2]", "result": 92, "unit": "%"},
      {"measurement": "activity at 500 µM", "setting": "Hst2 [2]", "result": 2, "unit": "%"}
    ]},
    {"smiles": "C[S+]([O-])CCC(C(=O)O)N1C(=O)c2ccccc2C1=O", "note": "(centres unmarked) [Compound 00032]", "values": [
      {"measurement": "IC50 (Table 5, scaffold 12 analogs, Hst2)", "setting": "Hst2 [5]", "result": "No inhibition"}
    ]},
    {"smiles": "CC(C)C(=O)CCN1C(=O)c2ccccc2C1=O", "note": "[Compound 04265]", "values": [
      {"measurement": "IC50 (Table 5, scaffold 12 analogs, Hst2)", "setting": "Hst2 [5]", "result": "No inhibition"}
    ]},
    {"smiles": "O=C(O)CCN1C(=O)c2cc(Cl)c(Cl)cc2C1=O", "note": "[Compound 39008]", "values": [
      {"measurement": "IC50 (Table 5, scaffold 12 analogs, Hst2)", "setting": "Hst2 [5]", "result": "No inhibition"}
    ]},
    {"smiles": "Nc1ccc2c(c1)C(=O)N(CCC(=O)O)C2", "note": "[Compound 42071]", "values": [
      {"measurement": "IC50 (Table 5, scaffold 12 analogs, Hst2)", "setting": "Hst2 [5]", "result": "No inhibition"}
    ]},
    {"smiles": "O=C(O)CCCN1C(=O)c2ccccc2C1=O", "note": "[Compound 47032]", "values": [
      {"measurement": "IC50 (Table 5, scaffold 12 analogs, Hst2)", "setting": "Hst2 [5]", "result": "No inhibition"}
    ]},
    {"smiles": "O=C(O)CCN1C(=O)c2ccc(-c3nc4ccccc4c(=O)o3)cc2C1=O", "note": "[Compound 47054]", "values": [
      {"measurement": "IC50 (Table 5, scaffold 12 analogs, Hst2)", "setting": "Hst2 [5]", "result": "No inhibition"}
    ]},
    {"smiles": "O=C1c2ccccc2C(=O)N1CCBr", "note": "[Compound 91032]", "values": [
      {"measurement": "IC50 (Table 5, scaffold 12 analogs, Hst2)", "setting": "Hst2 [5]", "result": "No inhibition"}
    ]},
    {"smiles": "Cc1cc(Cc2cc(C)c(O)c(C)c2)cc(C)c1O", "note": "[Compound 97252]", "values": [
      {"measurement": "inhibition of Hst2 deacetylation by scaffold analogs (in words)", "setting": "Hst2 [2]", "result": "most inhibitory activity"}
    ]},
    {"smiles": "Cc1cccc(OCC(=O)Oc2ccc3c(C)cc(=O)oc3c2)c1", "note": "[Compound 5140108]", "values": [
      {"measurement": "inhibition of Hst2 deacetylation by scaffold analogs (in words)", "setting": "Hst2 [2]", "result": "showed some deacetylase inhibition"}
    ]},
    {"smiles": "CCc1ccc(OCCCC(=O)Oc2ccc3c(C)cc(=O)oc3c2)cc1", "note": "[Compound 6802623]", "values": [
      {"measurement": "inhibition of Hst2 deacetylation by scaffold analogs (in words)", "setting": "Hst2 [2]", "result": "significantly reduced potency"}
    ]},
    {"smiles": "COc1ccc(OCCCC(=O)Oc2ccc3c(c2)CCC3)cc1", "note": "[Compound 6978945]", "values": [
      {"measurement": "inhibition of Hst2 deacetylation by scaffold analogs (in words)", "setting": "Hst2 [2]", "result": "significantly reduced potency"}
    ]},
    {"smiles": "Cc1ccc(OCCCC(=O)Oc2ccc3c(c2)CCC3)c(C)c1", "note": "[Compound 7985301]", "values": [
      {"measurement": "inhibition of Hst2 deacetylation by scaffold analogs (in words)", "setting": "Hst2 [2]", "result": "significantly reduced potency"}
    ]}
  ]
}
